For orientation: IC50 means the concentration needed to halve the response being measured.

Holding throughout (type): biochemical
In assay [1] the target is T1, human recombinant Monoacylglycerol Lipase (Homo sapiens, UniProt Q99685).
T1 sequence (Q99685 1-303): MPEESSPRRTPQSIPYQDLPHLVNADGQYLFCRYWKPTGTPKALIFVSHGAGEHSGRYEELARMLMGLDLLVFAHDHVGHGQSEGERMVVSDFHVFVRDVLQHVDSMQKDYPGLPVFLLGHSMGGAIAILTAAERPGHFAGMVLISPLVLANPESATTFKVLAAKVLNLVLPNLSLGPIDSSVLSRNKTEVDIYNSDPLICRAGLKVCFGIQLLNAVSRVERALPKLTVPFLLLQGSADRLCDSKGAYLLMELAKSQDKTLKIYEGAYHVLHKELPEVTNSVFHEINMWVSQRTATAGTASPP
Description: MAGL inhibition enzymatic assay, fluorogenic substrate 7-HCA, IC50 at T=0 min or after 30 minute incubation (T=30 min). To be noted: geometric mean of 2-4 determinations unless otherwise indicated. As to the method: An equal volume of 7-HCA in assay buffer with 10% DMSO was added either immediately (T=0 min) or after a 30 minute incubation (T=30 min) to initiate the reaction. […] After these dilutions, the final concentration of the test compound ranged from 3 μM to 0.03 nM. […] IC50 values were generated based on a four parameter fit model using ABASE software from IDBS.

The target in assay [2] is T1, human recombinant Monoacylglycerol Lipase. Description: MAGL inactivation, enzyme progress curves, kinact/KI. The note with it: from enzyme progress curves, T = 0 min protocol; geometric mean of 2-4 determinations unless otherwise indicated. As to the method:
Assessment of MAGL inhibition utilizes human recombinant Monoacylglycerol Lipase and the fluorogenic substrate 7-hydroxycoumarinyl arachidonate (7-HCA, Biomol ST-502). 400 nL of a test compound at decreasing concentration (ranging from 150 μM down to 1.5 nM) was spotted into a 384-well back plate (PerkinElmer, 6007279) using a Labcyte Echo, followed by addition of 10 μL of MAGL enzyme in assay buffer (50 mM HEPES, pH 7.4, 100 mM NaCl, 5 mM MgCl2, 0.1% Triton X-100 and 25% glycerin). An equal volume of 7-HCA in assay buffer with 10% DMSO was added either immediately (T=0 min) or after a 30 minute incubation (T=30 min) to initiate the reaction. The final concentration of MAGL enzyme was […] and 7-HCA substrate was 5 μM. After these dilutions, the final concentration of the test compound ranged from 3 μM to 0.03 nM. The reaction was allowed to progress for 60 minutes, after which the plate was read at an Ex/Em of 340/465. Percent inhibitions were calculated based on control wells containing no compound (0% inhibition) and a control compound (e.g., a MAGL inhibitor whose activity is known or was previously reported in the literature, such as one with about 100% inhibition). IC50 values were generated based on a four parameter fit model using ABASE software from IDBS. See e.g., Wang, Y. et al., “A Fluorescence-Based Assay for Monoacylglycerol Lipase Compatible with Inhibitor Screening,” Assay and Drug Development Technologies, 2008, Vol. 6 (3) pp 387-393 (reporting an assay for measuring MAGL activity).
To measure MAGL inactivation, the same protocol for the (T=0 min) MAGL inhibition IC50 assay was performed with data collected every minute to acquire enzyme progress curves at decreasing concentrations of compound.

A further assay has as its target T2, human recombinant FAAH (Homo sapiens, UniProt O00519).
T2 construct: purchased Cayman 10010183
T2 sequence (O00519 1-579): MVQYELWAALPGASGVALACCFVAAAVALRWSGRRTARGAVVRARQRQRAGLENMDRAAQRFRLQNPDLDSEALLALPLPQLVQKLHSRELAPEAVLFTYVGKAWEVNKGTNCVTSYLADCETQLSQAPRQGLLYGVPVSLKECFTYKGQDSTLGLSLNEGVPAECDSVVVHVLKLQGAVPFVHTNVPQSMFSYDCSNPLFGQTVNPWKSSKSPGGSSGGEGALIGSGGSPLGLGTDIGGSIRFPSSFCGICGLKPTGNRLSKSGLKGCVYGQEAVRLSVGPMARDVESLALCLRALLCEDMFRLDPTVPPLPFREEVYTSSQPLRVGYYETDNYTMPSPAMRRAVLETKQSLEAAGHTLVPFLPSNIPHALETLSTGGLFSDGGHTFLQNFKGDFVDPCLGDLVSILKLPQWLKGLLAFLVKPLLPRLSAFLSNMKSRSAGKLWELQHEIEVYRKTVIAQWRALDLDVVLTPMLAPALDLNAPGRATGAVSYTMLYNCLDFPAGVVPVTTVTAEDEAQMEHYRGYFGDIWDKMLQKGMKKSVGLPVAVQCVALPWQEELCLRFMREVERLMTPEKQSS
The experiment in a line: FAAH inhibition enzymatic assay, fluorescent substrate Arachidonoyl-AMC, 30 minute incubation. To be noted: T = 30 min (30 minute incubation); geometric mean of 2-4 determinations unless otherwise indicated. As to the method: Assessment of FAAH inhibition utilizes human recombinant FAAH and the fluorescent substrate, Arachidonoyl-AMC. 400 nL of a test compound at decreasing concentrations was spotted into a 384-well back plate (PerkinElmer, 6007279) using a Labcyte Echo, followed by addition of 10 μl of FAAH enzyme (Cayman 10010183) in assay buffer (50 mM Tris, pH 9.0, 1 mM EDTA). After a 30 minute incubation at room temperature, 10 μL of Arachidonyl-AMCA was added in assay buffer with 16% DMSO. Final concentration of FAAH enzyme was 0.0125 Units and AAMCA substrate was used at the Km of 5 μM. […] The reaction was allowed to progress for 60 minutes, after which the plate was read on a Molecular Devices FlexStation reader at an Ex/Em of 355/460. Percent inhibitions were calculated based on controls wells containing either no compound (0% inhibition) or a control compound (e.g., an FAAH inhibitor whose activity is known or was previously reported in the literature, such as one with about 100% inhibition). IC50 values were generated based on a four parameter fit model using ABASE software from IDBS.

Setting [3] is: T = 0 min (substrate added immediately), read-out: MAGL (T = 0 min) IC50.
[4] abbreviates: T = 30 min (30 minute incubation), read-out: MAGL (T = 30 min) IC50.

Molecules are shown by their SMILES. Like-named read-outs stand apart in the source and are kept apart here. Some results are limits rather than exact numbers.

For the molecule `COc1ccc(C2COC3(CCN(C(=O)O[C@H](CO)C(F)(F)F)CC3)C2)nc1` (mixture of isomers) [Example 121], the IC50 in assay [1] (setting [3]) was 149 nM; in assay [1] (setting [4]), 20 nM; on human recombinant FAAH, 14700 nM. The “MAGL kinact/KI” value in assay [2] was 1207 1/s per M.
For `O=C(O[C@H](CO)C(F)(F)F)N1CCC2(CC1)CC(N1CCc3ccccc3S1(=O)=O)CO2` (mixture of isomers) [Example 131], in that order: 86 nM, 11 nM, 17400 nM and 4241 1/s per M.
With `N#Cc1cccc(C2COC3(CCN(C(=O)O[C@H](CO)C(F)(F)F)CC3)C2)c1` (mixture of isomers) [Example 147], the concentration for half-maximal inhibition (IC50) was 60 nM in assay [1] (setting [3]), 6 nM in assay [1] (setting [4]) and over 26400 nM at human recombinant FAAH. In assay [2], the “MAGL kinact/KI” value is given as 5973 1/s per M.
Turning to `O=C(OC(C(F)(F)F)C(F)(F)CO)N1CCC2(CC1)CN(S(=O)(=O)c1ccc(F)cc1)CCO2` (racemic) [Example 19, 1,1,1,3,3-Pentafluoro-4-hydroxybutan-2-yl 4-[(4-fluorophenyl)sulfonyl]-1-oxa-4,9-diazaspiro[5.5]undecane-9-carboxylate], the half-maximal inhibitory concentration (IC50) in assay [1] (setting [3]) is 95 nM; in assay [1] (setting [4]) it was 8 nM; on human recombinant FAAH it was over 30000 nM. The “MAGL kinact/KI” value in assay [2] is recorded as 2397 1/s per M.
For `O=C(O[C@@H]([C@@H](O)C(F)(F)F)C(F)(F)F)N1C[C@@H]2[C@H](C1)[C@H]2c1ccn(-c2ccc(F)cc2)n1` (racemic) [Example 36], in that order: 132 nM, 12 nM, 13200 nM and 3736 1/s per M.
Regarding `CC(c1ccc(F)cc1)N1CCOC2(CCN(C(=O)O[C@H](CO)C(F)(F)F)CC2)C1` (single isomer, unassigned) [Example 44], the figures for the IC50 (in assay [1] (setting [3]); in assay [1] (setting [4]); on human recombinant FAAH) were 179 nM, 17 nM and over 30000 nM, respectively. Moreover, the “MAGL kinact/KI” value in assay [2] is 3701 1/s per M.
For `CC(c1ccc(F)cc1)N1CCOC2(CCN(C(=O)O[C@H](CO)C(F)(F)F)CC2)C1` (single isomer, unassigned) [Example 45], the values for the half-inhibitory concentration (IC50) (in assay [1] (setting [3]); in assay [1] (setting [4]); on human recombinant FAAH) were 191 nM, 18 nM and over 30000 nM, respectively. In assay [2], the “MAGL kinact/KI” value is 3134 1/s per M.
Take `O=C(O[C@H](CO)C(F)(F)F)N1CCC2(CC1)CC(c1ccccc1)CO2` (single isomer, unassigned) [Example 95]: the IC50 in assay [1] (setting [3]) worked out at 16 nM; in assay [1] (setting [4]), 1 nM; at human recombinant FAAH, 8720 nM. Further, the “MAGL kinact/KI” value in assay [2] is recorded as 131495 1/s per M.
For the molecule `O=C(O[C@H](CO)C(F)(F)F)N1CCC2(CC1)CC(c1ccccc1)CO2` (single isomer, unassigned) [Example 96], the half-inhibitory concentration (IC50) came out at 62 nM in assay [1] (setting [3]), 5 nM in assay [1] (setting [4]) and 9520 nM on human recombinant FAAH. For the same molecule, in assay [2], the “MAGL kinact/KI” value is reported as 18560 1/s per M.
For `CN(C(=O)c1ccccc1)C1COC2(CCN(C(=O)O[C@H](CO)C(F)(F)F)CC2)C1` (single isomer, unassigned) [Example 99], in that order: 107 nM, 11 nM, over 30000 nM and 16883 1/s per M.
In the case of `CN(C(=O)c1ccccc1)C1COC2(CCN(C(=O)O[C@H](CO)C(F)(F)F)CC2)C1` (single isomer, unassigned) [Example 100], the IC50 was 86 nM in assay [1] (setting [3]), 10 nM in assay [1] (setting [4]) and over 28700 nM on human recombinant FAAH. Besides, the “MAGL kinact/KI” value in assay [2] is listed as 5664 1/s per M.
With `CN(C1COC2(CCN(C(=O)O[C@H](CO)C(F)(F)F)CC2)C1)S(=O)(=O)c1cccc(F)c1` (single isomer, unassigned) [Example 108], the figures for the IC50 (in assay [1] (setting [3]); in assay [1] (setting [4]); at human recombinant FAAH) were 51 nM, 3 nM and 10700 nM, respectively. Further, in assay [2], the “MAGL kinact/KI” value is recorded as 15960 1/s per M.
On to `CN(C1COC2(CCN(C(=O)O[C@H](CO)C(F)(F)F)CC2)C1)S(=O)(=O)c1cccc(F)c1` (single isomer, unassigned) [Example 109], for which the IC50 was 21 nM in assay [1] (setting [3]), 2 nM in assay [1] (setting [4]) and over 30000 nM on human recombinant FAAH. In assay [2], the “MAGL kinact/KI” value is recorded as 34918 1/s per M.
For `CN(C1COC2(CCN(C(=O)O[C@H](CO)C(F)(F)F)CC2)C1)S(=O)(=O)c1ccc(F)cc1` (single isomer, unassigned) [Example 110], the IC50 in assay [1] (setting [3]) was determined as 70 nM; in assay [1] (setting [4]), 6 nM; on human recombinant FAAH, 7090 nM. The “MAGL kinact/KI” value in assay [2] is reported as 8796 1/s per M.
For the molecule `CN(C1COC2(CCN(C(=O)O[C@H](CO)C(F)(F)F)CC2)C1)S(=O)(=O)c1ccc(F)cc1` (single isomer, unassigned) [Example 111], the IC50 in assay [1] (setting [3]) is 28 nM; in assay [1] (setting [4]), 2 nM; on human recombinant FAAH, over 30000 nM. The “MAGL kinact/KI” value in assay [2] was 33483 1/s per M.
As for `O=C(O[C@H](CO)C(F)(F)F)N1CCC2(CC1)CC(Oc1ccccn1)CO2` (single isomer, unassigned) [Example 130], the IC50 in assay [1] (setting [3]) was determined as 76 nM; in assay [1] (setting [4]), 6 nM; at human recombinant FAAH, 25700 nM. Moreover, the “MAGL kinact/KI” value in assay [2] is given as 12483 1/s per M.
Take `O=C(OC(C(F)(F)F)C(F)(F)CO)N1CCC2(CC1)CN(S(=O)(=O)c1ccc(F)cc1)CCO2` (single isomer, unassigned; ent-1) [Example 20, 1,1,1,3,3-Pentafluoro-4-hydroxybutan-2-yl 4-[(4-fluorophenyl)sulfonyl]-1-oxa-4,9-diazaspiro[5.5]undecane-9-carboxylate, ENT-1]: the IC50 in assay [1] (setting [3]) was 61 nM; in assay [1] (setting [4]), 6 nM; on human recombinant FAAH, over 30000 nM. The “MAGL kinact/KI” value in assay [2] was 4611 1/s per M.
On to `O=C(O[C@H](CO)C(F)(F)F)N1CCC(c2ccn(-c3ccc(F)cc3)n2)CC1` [Example 2, (2R)-1,1,1-Trifluoro-3-hydroxypropan-2-yl 4-[1-(4-fluorophenyl)-1H-pyrazol-3-yl]piperidine-1-carboxylate], for which the values for the IC50 (in assay [1] (setting [3]); in assay [1] (setting [4]); at human recombinant FAAH) were 56 nM, 8 nM and 1140 nM, respectively. Moreover, the “MAGL kinact/KI” value in assay [2] is 6109 1/s per M.

These data come from US10723711B2, “1,1,1-trifluoro-3-hydroxypropan-2-yl carbamate derivatives and 1,1,1-trifluoro-4-hydroxybutan-2-yl carbamate derivatives as MAGL inhibitors” (PFIZER INC., priority 2015, dated 2020).
